Results: US8399412B2, “Method of treating or preventing tissue deterioration, injury or damage due to periodontal disease or disease of oral mucosa, and/or downregulating NF-kappabeta or supressing NF-kappabeta-mediated actions” (priority 2006, dated 2013)

Tests used:
IL-8 = assay: TNFα-induced IL-8 secretion by gingival fibroblasts (ELISA); type: cell-based, Human; conditions: for secreted IL-8 versus fibroblasts not treated with Tβ4: gingival fibroblasts, 20 ng/ml TNF alpha
Protocol: Human gingival Fb grown to 80% confluence, serum-starved, pretreated with Tb4 for one hour then with 20 ng/ml TNFa±Tb4 for 24 hours. […] of conditioned medium was used for ELISA. After removing medium, cells are fixed, stained, and lysed. OD 550 nm readings are used to normalize ELISA data for total cell number. Media control values were negligible and are not shown.
Human gingival fibroblasts (HGF-1, ATCC) were stimulated with TNFα (20 ng/ml), a potent pro-inflammatory cytokine widely used in in vitro models of inflammation.

gingival fibroblasts = assay: APOPercentage apoptosis assay in TNF-α stimulated gingival fibroblasts; type: cell-based, Human; conditions: TNF-α 20 ng/ml, 8 hours, 0.01 ug/ml Tβ4, p=0.0004
Protocol: It is well documented that proteases from oral bacteria such as P. gingivalis can induce death in different cell types in vitro, including fibroblasts, epithelial cells, and endothelial cells. Apoptosis can also be induced as a component of the inflammatory response.
The fibroblasts were then assayed using the APOPercentage assay (Accurate Chemical, Westbury, N.Y.), which detects changes in cell membrane phospholipids. […] The absorbance of released dye can be measured and correlated to the relative amount of apoptosis in the culture. […] There were a greater number of apoptotic cells in fibroblasts stimulated with TNFα compared to cells stimulated with TNFα and also treated with Tβ4.

NFκB [1] = assay: NFκB activity assay (binding to consensus oligonucleotides) in TNF-α stimulated HCET; type: cell-based, human; conditions: TNF-α 10 ng/ml
Protocol: (§1) At each time point the culture medium was removed and the adherent cells were scraped from the dish into 1 ml of cold PBS. The solution was centrifuged at 3000 rpm for 5 minutes. The cell pellet was lysed in 1 ml of cell extraction buffer provided with the activity assay kit (TransAm NFκB p65 Transcription Factor Assay Kit, Active Motif, Carlsbad, Calif.) on ice for 30 minutes, with vortexing every 10 minutes. The extract was centrifuged at 13,000 rpm for 10 minutes at 4° C. and the supernatant was used for activity assays following the kit protocol. In addition to the activity assay, the ELISA for total NFκB p65 subunit protein was completed simultaneously using aliquots of the same supernatants. ELISA values were used to standardize the activity values to correct for differences in protein concentration in each sample. The assays were repeated three times (n=3) and the results of a representative assay are reported as NFκB activity in arbitrary units±SEM. Statistical analysis was performed using the unpaired Student's t-test with significance set at P<0.05.
We hypothesized that Tβ4 functions as a transcription factor mediator in addition to its other known cellular functions. […] Transcription factor activity was analyzed calorimetrically using an assay that measured the ability of NFκB to bind to oligonucleotides containing consensus κB binding motifs immobilized to a plastic substrate. […]

NFκB [2] = assay: NFκB activity assay in TNF-α stimulated non-transformed human corneal epithelial cells (HCEC); type: cell-based; conditions: non-transformed human corneal epithelial culture, Tβ4 treatment, results not shown
Protocol: Non-transformed human corneal epithelial cells (HCEC) at passage 3 were purchased from Cascade Biologics (Portland, Oreg.). […] HCEC were used for experiments at passage 4. The transformed human corneal epithelial cell line 10.014 pRSV-T (HCET) was additionally used in this study. HCET were maintained in serum-free KGM on tissue culture plastic coated with a fibronectin-collagen type I matrix. Cells were cultured in a standard tissue culture incubator at 37° C. and in an atmosphere of 5% CO2 and 95% room air with medium changes every two days.
as §1, with “The assays were repeated three times (n=3) and the results of a representative assay are reported as NFκB activity in arbitrary units±SEM. Statistical analysis was performed using the unpaired Student's t-test with significance set at P<0.05.” left out

NFκB p65 subunit [3] = assay: NFκB p65 phosphorylation assay (CASE ELISA, phosphoserine 276) in HCET; type: cell-based, human; conditions: 30 minutes
Protocol: HCET were cultured in wells of a 96-well plate until approximately 80% confluent. […] At each time point adherent cells were fixed in cell fixing buffer containing 4% glutaraldehyde according to the phosphorylation assay kit protocol (CASE, cellular activation of signaling ELISA for phosphoserine 276 of NFκB p65 subunit, SuperArray, Frederick, Md.). Fixed cells were then processed using phospho-specific (phosphoserine 276 p65) or pan-protein specific (nonphosphorylated p65) primary antibodies and HRP-conjugated secondary antibodies. Following incubation with developing and stop solutions provided with the kit, individual well absorbance was read at 450 nm. Variation in cell number in individual wells was corrected by assaying the OD 540 nm of stained cells following completion of the phosphorylation assay and performing numerical correction of the OD 450 nm values. The assay was repeated twice (n=8) and a representative result is presented as relative amounts of phosphorylated and nonphosphorylated NFκB in arbitrary units±SEM. Statistical analysis was performed using the unpaired Student's t-test with significance set at P<0.05.
In addition to nuclear translocation, the p65 subunit of NFκB must undergo phosphorylation on several serine residues in order to be activated. […]

NFκB p65 subunit [4] = assay: Nuclear NFκB p65 protein level ELISA in HCET nuclear fractions; type: cell-based, human; conditions: TNF-α 10 ng/ml, Tβ4 1 μg/ml, 30 minutes, P=0.0066
Protocol: HCET were cultured until approximately 80% confluent. […] Cells maintained in culture medium only, or Tβ4 only were used as controls. The culture medium was removed and the adherent cells were scraped from the dish into 1 ml of cold PBS. The solution was centrifuged at 3000 rpm for 5 minutes. The cell pellet was resuspended in 0.5 ml hypotonic buffer (20 mM Tris-HCl, pH 7.4, 10 mM NaCl, 3 mM MgCl2) and incubated on ice for 15 minutes. 25 μl of 10% NP-40 was added with vortexing. The homogenate was centrifuged for 10 minutes at 3000 rpm at 4° C. The pellet was resuspended in 100 μl of the cell extraction buffer and incubated for 30 minutes on ice with vortexing every 10 minutes. The homogenate was centrifuged at 14,000 rpm for 30 minutes at 4° C. The resulting supernatant was used for the NFκB total p65 subunit ELISA. A representative analysis is presented as NFκB protein (pg/ml)±SEM. Statistical analysis was performed using the unpaired Student's t-test with significance set at P<0.05.
Nuclear translocation is an essential downstream event in NFκB mediated gene transcription. […] HCET were treated for 30 minutes and the amount of NFκB protein in nuclear fractions was measured by ELISA. Only activated, phosphorylated NFκB is capable of translocating to the nucleus.

NFκB p65 subunit [5] = assay: Nuclear translocation of NFκB p65 by immunofluorescence microscopy in HCET; type: cell-based, human; conditions: Tβ4 1 μg/ml during TNF-α stimulation, 30 minutes
Protocol: HCET were cultured on collagen-coated 4 chambered glass microscope slides to approximately 80% confluence. […] Cells maintained in culture medium only, or Tβ4 only were used as controls. Cells were fixed in 3.7% glutaraldehyde/PBS for 10 minutes then washed in PBS. Cells were permeabilized in 1% Triton X-100 for 5 minutes and washed again. The cells were then incubated with rabbit polyclonal antibodies specific for the N-terminus of human p65 NFκB (Santa Cruz Biotechnologies, Santa Cruz, Calif.) followed by FITC-conjugated goat anti-rabbit secondary antibodies. Digitized images were captured and stored (Axiophot fluorescence microscopy and imaging system, Carl Zeiss Medicine, Inc., Thornwood, N.Y.).
The nuclear translocation of NFκB was also examined morphologically in HCET by immunofluoresence microscopy using an antibody specific for the p65 subunit.

## Thymosin beta 4 [Tβ4]
IL-8; HGF-1 fibroblasts, TNFα 20 ng/ml, 0.01 ug/ml Tβ4, 24 hours, p=0.0012
  inhibition of TNFα-stimulated IL-8 secretion: most inhibition
IL-8; HGF-1 fibroblasts, TNFα 20 ng/ml, several concentrations of Tβ4, 24 hours, FIG. 3
  IL-8 secretion, dose response: inhibited IL-8 secretion in a dose-dependent manner
IL-8; 1 ug/ml Tβ4, 24 hours, FIG. 1, p=0.0004
  secreted IL-8 versus fibroblasts not treated with Tβ4: significantly lower levels of secreted IL-8
IL-8; 5 ug/ml Tβ4, 24 hours, FIG. 1, p=0.0016
  secreted IL-8 versus fibroblasts not treated with Tβ4: significantly lower levels of secreted IL-8
IL-8; Tβ4 0.001-5 ug/ml (all levels), 24 hours
  secreted IL-8 versus fibroblasts not treated with Tβ4: lower levels of secreted IL-8
Gingival fibroblasts
  apoptotic cell death induced by TNF-α: significantly inhibits apoptotic cell death
NFκB [1]; Tβ4 1 μg/ml, 5, 10, 15 and 20 minutes of stimulation
  NFκB activity versus cells stimulated with TNF-α: increased NFκB activity
NFκB [1]; Tβ4 1 μg/ml, 30 and 60 minutes
  TNF-α induced activation of NFκB: significantly suppressed
NFκB [2]
  NFκB activity after TNF-α stimulation: decreased NFκB activity
NFκB p65 subunit [3]; TNF-α 10 ng/ml, Tβ4 1 μg/ml
  reduction of NFκB phosphorylation levels: 45%
NFκB p65 subunit [3]; Tβ4 present during TNF-α stimulation, 100% with TNF-α only
  proportion of phosphorylated NFκB: 55%
NFκB p65 subunit [4]
  NFκB protein in nuclear fractions: significant decrease
NFκB p65 subunit [5]
  NFκB p65 localization (fluorescence pattern): mainly perinuclear
